Where two headings read alike, the source gives them in different places.
Tests used:
OTUB2 (OTUB2A) = molecular target: T1, OTUB2 (OTUB2A) (Homo sapiens, UniProt Q96DC9); design: Intact protein LC/MS covalent labelling, fragments in pools of five, 200 uM each, 4 °C; conditions: 24 h, 4 °C, pool of five; 200 µM; covalent
T1 construct: full length residues 1-234, E. coli BL21(DE3)-R3, His tag removed by TEV, construct 27312 Da
T1 sequence (Q96DC9 1-234): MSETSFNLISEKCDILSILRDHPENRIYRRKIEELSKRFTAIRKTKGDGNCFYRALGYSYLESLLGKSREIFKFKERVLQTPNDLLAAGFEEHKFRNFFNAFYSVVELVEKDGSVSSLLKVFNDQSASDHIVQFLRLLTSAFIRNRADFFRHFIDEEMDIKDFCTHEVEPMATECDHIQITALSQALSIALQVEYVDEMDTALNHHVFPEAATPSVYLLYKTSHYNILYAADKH

NUDT7 = molecular target: T2, NUDT7 (Homo sapiens, UniProt P0C024); design: Intact protein LC/MS covalent labelling, fragments in pools of five, 200 uM each, 4 °C; conditions: 24 h, 4 °C, pool of five; 200 µM; covalent
T2 construct: residues 14-235, E. coli, pNIC28-Bsa4, N-terminal His6 tag removed by TEV, construct 26672 Da

BSA = molecular target: T3, BSA (Bos taurus, UniProt P02769); design: Intact protein LC/MS covalent labelling, fragments in pools of five, 200 uM each, 4 °C; conditions: 24 h, 4 °C, pool of five; 200 µM; covalent
T3 construct: gene ALB

NNMT (hNNMT) = molecular target: T4, NNMT (hNNMT) (Homo sapiens, UniProt P40261); design: Intact protein LC/MS covalent labelling, fragments in pools of five, 200 uM each, 4 °C; conditions: 24 h, 4 °C, pool of five; 200 µM; covalent
T4 construct: wild type, N-terminal His6 tag kept (no cleavage described), E. coli, construct 31248 Da
T4 sequence (P40261 1-264): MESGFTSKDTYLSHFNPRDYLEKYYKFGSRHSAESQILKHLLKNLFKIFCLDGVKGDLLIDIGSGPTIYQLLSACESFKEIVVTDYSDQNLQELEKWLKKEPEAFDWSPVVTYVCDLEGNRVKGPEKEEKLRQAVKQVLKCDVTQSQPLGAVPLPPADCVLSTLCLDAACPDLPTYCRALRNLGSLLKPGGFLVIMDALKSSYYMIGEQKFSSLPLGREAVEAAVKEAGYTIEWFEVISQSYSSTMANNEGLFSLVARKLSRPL

PCAF = molecular target: T5, PCAF (Homo sapiens, UniProt Q92831); design: Intact protein LC/MS covalent labelling, fragments in pools of five, 200 uM each, 4 °C; conditions: 24 h, 4 °C, pool of five; 200 µM; covalent
T5 construct: gene KAT2B

in vitro [1] = assay: in vitro; design: species or system CCD841, HEK293; conditions: human, hb2 cells, read-out: HB-2 Cells Viability (%)
in vitro [2] = assay: in vitro; design: species or system HB2, CCD841; conditions: human, hek293 cells
in vitro [3] = assay: in vitro; design: species or system HB2, HEK293; conditions: human, ccd841 cells

T3 sequence (P02769 whole entry, the tested form may be a part): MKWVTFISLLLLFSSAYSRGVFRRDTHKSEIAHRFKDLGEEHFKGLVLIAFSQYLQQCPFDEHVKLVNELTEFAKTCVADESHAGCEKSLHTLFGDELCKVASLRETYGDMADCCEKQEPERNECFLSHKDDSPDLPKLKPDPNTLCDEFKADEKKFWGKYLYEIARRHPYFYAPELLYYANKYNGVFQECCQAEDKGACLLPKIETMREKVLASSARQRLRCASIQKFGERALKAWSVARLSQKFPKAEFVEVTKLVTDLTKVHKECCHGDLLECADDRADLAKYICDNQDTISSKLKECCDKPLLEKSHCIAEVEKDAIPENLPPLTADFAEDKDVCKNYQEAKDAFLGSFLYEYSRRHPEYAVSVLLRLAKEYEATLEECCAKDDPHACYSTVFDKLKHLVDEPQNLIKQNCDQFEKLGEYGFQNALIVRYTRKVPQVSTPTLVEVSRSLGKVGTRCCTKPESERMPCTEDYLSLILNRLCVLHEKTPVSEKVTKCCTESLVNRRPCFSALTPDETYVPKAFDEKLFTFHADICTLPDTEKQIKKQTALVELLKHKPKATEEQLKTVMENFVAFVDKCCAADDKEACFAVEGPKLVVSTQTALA
T5 sequence (Q92831 whole entry, the tested form may be a part): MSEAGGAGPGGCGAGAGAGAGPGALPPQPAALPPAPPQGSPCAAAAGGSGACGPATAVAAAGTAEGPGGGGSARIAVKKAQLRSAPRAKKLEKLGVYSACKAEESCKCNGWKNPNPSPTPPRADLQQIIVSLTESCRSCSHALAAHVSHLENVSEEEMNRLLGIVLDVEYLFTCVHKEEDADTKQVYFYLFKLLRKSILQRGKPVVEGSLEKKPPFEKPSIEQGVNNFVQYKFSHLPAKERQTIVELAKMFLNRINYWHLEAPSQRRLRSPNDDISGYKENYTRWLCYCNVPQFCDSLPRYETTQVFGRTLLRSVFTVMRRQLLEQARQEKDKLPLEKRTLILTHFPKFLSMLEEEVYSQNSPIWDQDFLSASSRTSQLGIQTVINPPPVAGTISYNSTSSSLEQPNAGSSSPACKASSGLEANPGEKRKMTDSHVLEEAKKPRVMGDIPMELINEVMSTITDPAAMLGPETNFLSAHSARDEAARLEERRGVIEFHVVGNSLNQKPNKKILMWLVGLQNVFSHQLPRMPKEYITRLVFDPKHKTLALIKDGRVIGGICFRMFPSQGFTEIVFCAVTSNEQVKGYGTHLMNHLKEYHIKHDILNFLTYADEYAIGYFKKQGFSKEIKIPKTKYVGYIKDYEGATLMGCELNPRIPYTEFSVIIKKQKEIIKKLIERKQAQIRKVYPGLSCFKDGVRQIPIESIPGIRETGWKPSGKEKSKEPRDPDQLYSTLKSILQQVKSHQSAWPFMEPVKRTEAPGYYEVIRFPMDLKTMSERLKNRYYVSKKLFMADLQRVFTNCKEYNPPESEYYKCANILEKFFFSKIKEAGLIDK
T2 sequence (P0C024 14-235): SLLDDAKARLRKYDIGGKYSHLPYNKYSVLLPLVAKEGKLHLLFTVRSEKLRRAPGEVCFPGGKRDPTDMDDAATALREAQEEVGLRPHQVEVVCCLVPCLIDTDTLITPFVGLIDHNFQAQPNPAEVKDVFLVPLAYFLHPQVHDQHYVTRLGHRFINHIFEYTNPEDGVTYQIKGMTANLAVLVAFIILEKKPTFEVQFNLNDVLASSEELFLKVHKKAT

Structure (SMILES)	OTUB2 (OTUB2 (OTUB2A))	NUDT7 (NUDT7)	BSA (BSA)	NNMT (NNMT (hNNMT))	PCAF (PCAF)	viability at 48 h, 10 µM (in vitro [1])	viability at 48 h, 10 µM (in vitro [2])	viability at 48 h, 10 µM (in vitro [3])
N#Cc1cccc(C(=O)NNC(=O)CCl)c1 [PCM-0102857]	0.41	0	0	0	0	103%	102%	82.6%
CCOC(=O)N1CCN(C(=O)CCl)CC1 [PCM-0102861]	0	0	0	0	0	114%	82.6%	109%
O=C(CCl)NC1CCCC(C(F)(F)F)C1 (stereo not drawn) [PCM-0102862]	0.14	0	0	0.29	0	95%	84%	106%
O=C(CCl)Nc1ccc2[nH]c(=O)[nH]c2c1 [PCM-0102866]	0.3	0	0	0	0	77.3%	27.5%	73.7%
CC1CCCN(C(=O)CCl)C1 (stereo not drawn) [PCM-0102867]	0	0	0	0	0	102%	103%	104%
O=C(CCl)NC1CCOc2ccccc21 (stereo not drawn) [PCM-0102871]	0.44	0	0	0	0	92.9%	69.5%	87.1%
COc1cc(=O)[nH]c(NC(=O)CCl)n1 [PCM-0102873]	0	0	0.17	0	0	99.9%	114%	100%
Cc1ccccc1CN1CCN(C(=O)CCl)CC1.Cl [PCM-0102876]	0	0	0	0	0	31.1%	38.1%	69.2%
C=CC(=O)NC(=O)Nc1ccccc1 [PCM-0102883]	0	0	0	0	0	5.4%	4%	17.8%
O=C(CCl)NNC(=O)c1ccc([N+](=O)[O-])cc1 [PCM-0102885]	0.21	0	0	0	0	91%	92.9%	83.3%
C=CC(=O)N1CCN(C2CCCN(C3CCOCC3)C2=O)CC1 (stereo not drawn) [PCM-0102886]	0	0	0	0	0	106%	104%	105%
N#Cc1ccc(C(=O)NNC(=O)CCl)cc1 [PCM-0102892]	0.14	0	0	0	0	86.2%	103%	85.9%
O=C(CCl)Nc1cccc(Cl)c1N1CCOCC1 [PCM-0102893]	0	0.14	0	0.62	0	51.2%	26.9%	78%
CN(Cc1ccc(Cl)s1)C(=O)CCl [PCM-0102898]	0	0.29	0	0.47	0	11%	7.8%	46.5%
O=C(CCl)NC(=O)Cc1ccccc1 [PCM-0102902]	0	0	0	0	0	104%	116%	117%
NS(=O)(=O)c1ccccc1NC(=O)CCl [PCM-0102903]	0.14	0.29	0	0	0	65.4%	69.7%	55.2%
COCC(=O)NC(=O)CCl [PCM-0102904]	0	0	0	0	0	101%	105%	116%
Cl.O=C(CCl)N1CCN(c2ccc(F)cc2)CC1 [PCM-0102905]	0.07	0.1	0	0.2	0	24.7%	56.8%	77%
C=CC(=O)N1CCCC(Cc2nnc3ccccn23)C1 (stereo not drawn) [PCM-0102909]	0	0	0	0	0	101%	108%	87.9%
O=C(CCl)NC(=O)Nc1ccc2c(c1)OCCCO2 [PCM-0102910]	0	0	0	0.69	0	67.5%	81%	67.2%
COC(=O)c1cc(Cl)cc(Cl)c1NC(=O)CCl [PCM-0102912]	0	0.17	0.11	0.11	0	97%	106%	90.6%
C=CC(=O)Nc1cc(F)ccc1C [PCM-0102917]	0	0	0	0	0	103%	76.3%	106%
CC(=O)c1oc2ccccc2c1NC(=O)CCl [PCM-0102918]	0	0.39	0	0.56	0	42.4%	36.8%	65.3%
C=CC(=O)N1CCC(Oc2cnc3ccccc3n2)CC1 [PCM-0102925]	0	0	0	0	0	107%	86.8%	102%
COc1ccc(C2=CCN(C(=O)CCl)CC2)cc1 [PCM-0102929]	0	0.45	0	0.22	0	59.4%	71%	90.4%
O=C(CCl)NC1CCN(C(=O)C2CCCCC2)CC1 [PCM-0102931]	0.09	0	0	0	0	82.9%	118%	78.6%
CC(=O)N1CCC(NC(=O)CCl)CC1 [PCM-0102932]	0.07	0	0	0	0	95.1%	88%	85.9%

Reference: PMC6556873, “Rapid Covalent-Probe Discovery by Electrophile-Fragment Screening” (Journal of the American Chemical Society, 2019)
